Laboratory results taken from the supplement of paper PMC10307832.

What follows are cell lines tested with COC1=CC=C(C=C1)CN2C=CC3=C2C=C(C=C3)C(=O)NO + CS(=O)(=O)CCNCc1ccc(-c2ccc3ncnc(Nc4ccc(OCc5cccc(F)c5)c(Cl)c4)c3c2)o1 [Lapatinib] (partner 2 µM) (assay: relative viability (nuclei count vs DMSO), 5 days (fraction); higher = more cells survive). Conditions: first compound 0.08 µM.
Method in brief: (§1)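 Relative viability divides the nuclei count in treated wells by that in vehicle wells. Lung cancer cell lines were seeded in 1536-well plates, dosed by pin tool the next day, and fixed and stained after 5 days in one step with final 0.05% Triton X-100, 1% formaldehyde and 1 ug/ml Hoechst. Dosing was a single drug or a fixed anchor-drug dose plus five library-drug doses (not always all listed) in √10 steps, and values are medians of duplicate plates imaged at 4×.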

Cell Line	relative viability
NCI-H1975	0.691
H3255	0.184
NCI-H2023	0.155
NCI-H2405	0.523
SK-LU-1	0.711
NCI-H1437	0.23
ABC-1	0.618
NCI-H596	0.976
HCC-15	0.458
NCI-H460	0.118
EMC-BAC-2	0.613
IA-LM	0.551
NCI-H2009	0.432
NCI-H1395	0.674
NCI-H520	0.425
EKVX	0.166
NCI-H1299	0.959
NCI-H1650	0.254
EPLC-272H	0.199
PC-14	0.199
LXF-289	0.301
NCI-H1793	0.343
NCI-H1703	0.691
Calu-6	0.432
NCI-H2170	0.187

Same assay, conditions: first compound 0.253 µM

Cell Line	relative viability
LU99A	0.92
NCI-H1975	0.845
H3255	0.247
NCI-H2023	0.792
NCI-H2405	1.03
SK-LU-1	0.781
NCI-H1734	1.14
NCI-H1437	0.84
ABC-1	1.13
NCI-H596	1.01
HCC-15	0.875
NCI-H460	1.04
EMC-BAC-2	0.884
IA-LM	0.662
NCI-H2009	0.886
COR-L 105	0.367
NCI-H1395	0.851

Cell Line	relative viability
NCI-H520	0.891
NCI-H358	0.472
HCC-78	0.706
EKVX	0.18
EBC-1	0.226
NCI-H1299	0.979
NCI-H1650	0.76
EPLC-272H	0.974
LK-2	0.909
PC-14	0.349
LXF-289	0.921
A549	0.931
NCI-H1793	0.751
NCI-H1703	1.16
Calu-6	1.05
NCI-H2170	0.282

Same assay, conditions: first compound 0.8 µM

Cell Line	relative viability
LU99A	0.961
NCI-H1975	0.832
H3255	0.221
NCI-H2023	0.784
NCI-H2405	1.11
SK-LU-1	1.04
NCI-H1734	1.07
NCI-H1437	0.877
ABC-1	1.21
NCI-H596	1.25
HCC-15	0.843
NCI-H460	0.953
EMC-BAC-2	0.954
IA-LM	0.952
NCI-H2009	1.25
COR-L 105	0.37
NCI-H1395	0.937

Cell Line	relative viability
NCI-H520	0.943
NCI-H358	0.437
HCC-78	0.731
EKVX	0.185
EBC-1	0.211
NCI-H1299	0.969
NCI-H1650	0.847
EPLC-272H	1.04
LK-2	0.932
PC-14	0.38
LXF-289	0.878
A549	1.09
NCI-H1793	0.688
NCI-H1703	1.1
Calu-6	1.06
NCI-H2170	0.26

Same assay, conditions: first compound 2.53 µM

Cell Line	relative viability
LU99A	0.957
NCI-H1975	0.875
H3255	0.238
NCI-H2023	0.864
NCI-H2405	1.17
SK-LU-1	0.905
NCI-H1734	1.04
NCI-H1437	0.886
ABC-1	1.3
NCI-H596	1.11
HCC-15	0.842
NCI-H460	0.907
EMC-BAC-2	0.906
IA-LM	0.966
NCI-H2009	0.954
COR-L 105	0.341
NCI-H1395	0.93

Cell Line	relative viability
NCI-H520	0.886
NCI-H358	0.394
HCC-78	0.715
EKVX	0.203
EBC-1	0.232
NCI-H1299	0.934
NCI-H1650	0.86
EPLC-272H	0.974
LK-2	0.955
PC-14	0.384
LXF-289	0.926
A549	0.953
NCI-H1793	0.705
NCI-H1703	1.07
Calu-6	1.1
NCI-H2170	0.27

Same assay, conditions: first compound 8 µM

Cell Line	relative viability
LU99A	0.891
NCI-H1975	0.78
H3255	0.226
NCI-H2023	0.601
NCI-H2405	0.871
SK-LU-1	0.81
NCI-H1734	0.916
NCI-H1437	0.8
ABC-1	1.13
NCI-H596	0.999
HCC-15	0.73
NCI-H460	0.931
EMC-BAC-2	0.819
IA-LM	0.541
NCI-H2009	0.767
COR-L 105	0.296
NCI-H1395	0.778

Cell Line	relative viability
NCI-H520	0.803
NCI-H358	0.397
HCC-78	0.733
EKVX	0.225
EBC-1	0.208
NCI-H1299	0.923
NCI-H1650	0.451
EPLC-272H	0.728
LK-2	0.82
PC-14	0.373
LXF-289	0.883
A549	0.915
NCI-H1793	0.598
NCI-H1703	0.873
Calu-6	1.03
NCI-H2170	0.245

These cell lines were tested with COC1=CC=C(C=C1)CN2C=CC3=C2C=C(C=C3)C(=O)NO + C[C@@H](Oc1cc(-c2cnn(C3CCNCC3)c2)cnc1N)c1c(Cl)ccc(F)c1Cl [Crizotinib] (partner 1 µM) in the same assay as above. Conditions: first compound 0.08 µM.
Method in brief: as §1

Cell Line	relative viability
NCI-H1975	0.915
H3255	0.571
NCI-H2023	0.625
